Experimental data from patent US20180243421A1, “IMMUNOSTIMULATING AGENT” (AJINOMOTO CO., INC., priority 2015, published 2018).

System: anti-OVA-specific IgG1 subclass antibody
Test: Adjuvant activity after primary immunization: anti-OVA-specific IgG1 subclass antibody in serum (Examples 13-18)
Format: in vivo, BALB/c mice
Settings: OVA 5 μg + 0.256 μmol in 5% αCD saline s.c., serum after 12 days
Method: 8-Week-old female BALB/c mice were divided into groups (N=6), and each group was primarily immunized by dorsal-subcutaneous administration of (1) ovalbumin (OVA) (5 μg) dissolved in saline as an antigen (OVA single administration group), (2) OVA (5 μg) and SZ83 (0.256 μmol) dissolved or dispersed in 5% αCD-added saline (SZ83 administration group), (3) OVA (5 μg) and SZ84 (0.256 μmol) dissolved or dispersed in 5% αCD-added saline (SZ84 administration group), (4) OVA (5 μg) and SZ86 (0.256 μmol) dissolved or dispersed in 5% αCD-added saline (SZ86 administration group), (5) OVA (5 μg) and SZ89 (0.256 μmol) dissolved or dispersed in 5% αCD-added saline (SZ89 administration group), (6) OVA (5 μg) and SZ90 (0.256 μmol) dissolved or dispersed in 5% αCD-added saline (SZ90 administration group), each per mouse. After 12 days, blood samples were collected under anesthesia, and the obtained serum samples were subjected to the measurement of an anti-OVA-specific IgG1 subclass antibody.
Measurement Method of Concentration of anti-OVA-specific IgG1 Subclass Antibody and anti-OVA-specific IgG2a Subclass Antibody
To a 96 well plate was added 5 μg/ml OVA at 100 μl/well, and the mixture was incubated at 4° C. overnight. After incubation, the mixture was washed three times with 200 μl of PBS-T (PBS+0.05% (v/v) Tween 20) per well, and blocked with 100 μl of 5% FCS/PBS solution per well at room temperature for 1 to for 2 hr. Thereafter, the mixture was washed three times with PBS-T (200 μl/well), a diluted serum sample (100 μl/well) or the same amount of 5% FCS/PBS solution as a control was added, to and the mixture was incubated at 37° C. for 1 hr. To calculate concentration of the antibody, the standard of an anti-OVA-specific IgG1 subclass antibody diluted with 2% FCS/PBS solution was added at 100 ng/ml, 50 ng/ml, 25 ng/ml, 12.5 ng/ml, 6.25 ng/ml, 3.125 ng/ml, 1.56 ng/ml, 0.781 ng/ml, 0.391 ng/ml, 0.195 ng/ml, 0.098 ng/ml, 0 ng/ml, per 1 well. When an anti-OVA-specific IgG2a subclass antibody was measured, the standard of an anti-OVA-specific IgG2a subclass antibody was added at 50 ng/ml, 25 ng/ml, 12,5 ng/ml, 6.25 ng/ml, 3.125 ng/ml, 1.56 ng/ml, 0.781 ng/ml, 0.391 ng/ml, 0.195 ng/ml, 0.098 ng/ml, 0.049 ng/ml, 0 ng/ml, per 1 well. […] Thereafter, the mixture was washed five times with PBS-T (200 μl/well), a diluted anti-biotin-HRP antibody was added (100 μl/well), and the mixture was incubated at 37° C. for another 30 min. Thereafter, the mixture was washed five times with PBS-T (200 μl/well), TMB substrate solution was added (100 μl/well), and the mixture was incubated at room temperature for 10- for 15 min. Thereafter, a reaction quenching liquid (2N sulfuric acid solution) was added (50 μl/well) to discontinue a color developing reaction, and the absorbance (OD Value=450 nm) was measured by a microplate reader. A standard curve was drawn from the measured OD values, and the concentration was calculated.
8-Week-old female BALB/c mice were divided into groups (N=6), and each group was primarily immunized by dorsal-subcutaneous administration of (1) ovalbumin (OVA) (5 μg) dissolved in saline as an antigen (OVA single administration group), (2) OVA (5 μg) and SZ92 (0.256 μmol) dissolved or dispersed in 5% αCD-added saline (SZ92 administration group), (3) OVA (5 μg) and SZ94 (0.256 μmol) dissolved or dispersed in 5% αCD-added saline (SZ94 administration group), (4) OVA (5 μg) and SZ95 (0.256 μmol) dissolved or dispersed in 5% αCD-added saline (SZ95 administration group), (5) OVA (5 μg) and SZ96 (0.256 μmol) dissolved or dispersed in 5% αCD-added saline (SZ96 administration group), each per mouse. After 12 days, blood samples were collected under anesthesia, and the obtained serum samples were subjected to the measurement of anti-OVA-specific IgG1 subclass antibody.

Row | SMILES | anti-OVA-specific IgG1 subclass antibody production after primary immunization as compared to the OVA single administration group (Example 15) | also measured
1 | CCCCCCCCCCCCCCCCCCCCCC(=O)N[C@@H](CCC(=O)O)C(=O)N(CC)CC [SZ106, N^2-docosanoyl-N^1,N^1-diethyl-L-glutamic acid 1-amide] | show a tendency to increase | –
2 | CCCCCCCCCCCCCCCC(=O)N[C@@H](CC(C)C)C(=O)OCCCCCC [SZ97, N-hexadecanoyl-L-leucine hexyl ester] | show a tendency to increase | –
3 | CCCCCCCCCCCCCCCC(=O)N[C@@H](CCCNC(=N)N)C(=O)OCCCCCC.Cl [SZ99, N^2-hexadecanoyl-L-arginine hexyl ester hydrochloride salt] | significantly increased | –
4 | CCCCCCCCCCCCCCCCCCC(CCCCCCCCCCCCCCCCCC)C(=O)N[C@@H](CC(C)C)C(=O)OC [SZ86, N-(2-octadecyleicosanoyl)-L-leucine methyl ester] | – | anti-OVA-specific IgG1 subclass antibody production after primary immunization (Example 13): show a tendency to increase
5 | CCCCCCCCCCCCCCCC(=O)N[C@@H](CC(C)C)C(=O)N(CC)CC [SZ92, N^2-hexadecanoyl-N^1,N^1-diethyl-L-leucinamide] | – | anti-OVA-specific IgG1 subclass antibody production after primary immunization as compared to the OVA single administration group (Example 14): significantly increased
6 | CCCCCCCCCCCCCCCCCCCCCC(=O)NC(=N)NCCCCN.Cl [SZ108, N-docosanoylagmatine hydrochloride salt] | – | anti-OVA-specific IgG1 subclass antibody production after primary immunization as compared to the OVA single administration group (Example 16): significantly increased
